In ChEMBL document CHEMBL1201862, “PubChem BioAssay data set” (2004):
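Briefly, cells in 96-well plates were exposed to five compound concentrations for 48 h, and endpoints were estimated by linear interpolation. GI50: concentration for 50% inhibition of growth.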 Active and inactive are the calls of the source. No stated cut-off is given here; in the data, active = GI50 up to about 1.1 µM and inactive = higher.

Legend:
Assay in all cases: NCI tumour cell line growth inhibition, 48 h
SNB-19 = system: SNB-19
SK-OV-3 = system: SK-OV-3
SK-MEL-5 = system: SK-MEL-5
HCT-15 = system: HCT-15
SF-539 = system: SF-539
UACC-257 = system: UACC-257
TK-10 = system: TK-10
CAKI-1 = system: CAKI-1
NCI/ADR-RES = system: NCI/ADR-RES
LOX IMVI = system: LOX IMVI
BT-549 = system: BT-549
SK-MEL-28 = system: SK-MEL-28
ACHN = system: ACHN
M14 = system: M14
HCT-116 = system: HCT-116
SF-268 = system: SF-268
UO-31 = system: UO-31
A549 = system: A549
RPMI-8226 = system: RPMI-8226
OVCAR-5 = system: OVCAR-5
SW-620 = system: SW-620
MDA-MB-231 = system: MDA-MB-231
NCI-H23 = system: NCI-H23
CCRF-CEM = system: CCRF-CEM
MCF7 = system: MCF7
Malme-3M = system: Malme-3M
MDA-N = system: MDA-N
EKVX = system: EKVX
SNB-75 = system: SNB-75
MDA-MB-435 = system: MDA-MB-435
T47D = system: T47D
OVCAR-8 = system: OVCAR-8
K562 = system: K562
U-251 = system: U-251
HOP-92 = system: HOP-92
MOLT-4 = system: MOLT-4
DU-145 = system: DU-145
A498 = system: A498
HOP-62 = system: HOP-62
SR = system: SR
SK-MEL-2 = system: SK-MEL-2
786-0 = system: 786-0
OVCAR-3 = system: OVCAR-3
IGROV-1 = system: IGROV-1
UACC-62 = system: UACC-62
PC-3 = system: PC-3
SF-295 = system: SF-295
SN12C = system: SN12C
NCI-H522 = system: NCI-H522
NCI-H460 = system: NCI-H460
RXF 393 = system: RXF 393
OVCAR-4 = system: OVCAR-4
Hs-578T = system: Hs-578T
KM12 = system: KM12
COLO 205 = system: COLO 205
HT-29 = system: HT-29
NCI-H226 = system: NCI-H226
HL-60 = system: HL-60

Oc1c(Cl)cc(CN(Cc2cc(Cl)c(O)c(Cl)c2)C2CCCCC2)cc1Cl
GI50 (SNB-19): > 100 µM (inactive)
GI50 (SK-OV-3): > 100 µM (inactive)
GI50 (SK-MEL-5): > 100 µM (inactive)
GI50 (HCT-15): > 100 µM
GI50 (SF-539): > 100 µM (inactive)
GI50 (UACC-257): > 100 µM (inactive)
GI50 (TK-10): > 100 µM (inactive)
GI50 (CAKI-1): > 100 µM (inactive)
GI50 (NCI/ADR-RES): > 100 µM (inactive)
GI50 (LOX IMVI): > 100 µM (inactive)
GI50 (BT-549): > 100 µM (inactive)
GI50 (SK-MEL-28): > 100 µM (inactive)
GI50 (ACHN): > 100 µM (inactive)
GI50 (M14): > 100 µM (inactive)
GI50 (HCT-116): > 100 µM (inactive)
GI50 (SF-268): > 100 µM (inactive)
GI50 (UO-31): > 100 µM (inactive)
GI50 (A549): > 100 µM (inactive)
GI50 (RPMI-8226): > 100 µM (inactive)
GI50 (OVCAR-5): > 100 µM (inactive)
GI50 (SW-620): > 100 µM (inactive)
GI50 (MDA-MB-231): > 100 µM (inactive)
GI50 (NCI-H23): > 100 µM (inactive)
GI50 (CCRF-CEM): < 0.01 µM (active)
GI50 (MCF7): > 100 µM (inactive)
GI50 (Malme-3M): > 100 µM (inactive)
GI50 (MDA-N): > 100 µM (inactive)
GI50 (EKVX): > 100 µM (inactive)
GI50 (SNB-75): > 100 µM (inactive)
GI50 (MDA-MB-435): > 100 µM (inactive)
GI50 (T47D): > 100 µM (inactive)
GI50 (OVCAR-8): > 100 µM (inactive)
GI50 (K562): > 100 µM (inactive)
GI50 (U-251): > 100 µM (inactive)
GI50 (HOP-92): > 100 µM (inactive)
GI50 (MOLT-4): > 100 µM (inactive)
GI50 (DU-145): > 100 µM (inactive)
GI50 (A498): > 100 µM (inactive)
GI50 (HOP-62): > 100 µM (inactive)
GI50 (SR): > 100 µM (inactive)
GI50 (SK-MEL-2): > 100 µM (inactive)
GI50 (786-0): > 100 µM (inactive)
GI50 (OVCAR-3): > 100 µM (inactive)
GI50 (IGROV-1): > 100 µM (inactive)
GI50 (UACC-62): > 100 µM (inactive)
GI50 (PC-3): > 100 µM (inactive)
GI50 (SF-295): > 100 µM (inactive)
GI50 (SN12C): > 100 µM (inactive)
GI50 (NCI-H522): > 100 µM (inactive)
GI50 (NCI-H460): > 100 µM (inactive)
GI50 (RXF 393): > 100 µM (inactive)
GI50 (OVCAR-4): > 100 µM (inactive)
GI50 (Hs-578T): > 100 µM (inactive)
GI50 (KM12): > 100 µM (inactive)
GI50 (COLO 205): > 100 µM (inactive)
GI50 (HT-29): > 100 µM (inactive)

C#CCOC(=O)c1ccccc1O
GI50 (SNB-19): > 100 µM (inactive)
GI50 (SK-OV-3): > 100 µM (inactive)
GI50 (SK-MEL-5): > 100 µM (inactive)
GI50 (HCT-15): > 100 µM
GI50 (NCI-H226): > 100 µM (inactive)
GI50 (SF-539): > 100 µM (inactive)
GI50 (UACC-257): > 100 µM (inactive)
GI50 (TK-10): > 100 µM (inactive)
GI50 (CAKI-1): > 100 µM (inactive)
GI50 (NCI/ADR-RES): > 100 µM (inactive)
GI50 (LOX IMVI): > 100 µM (inactive)
GI50 (BT-549): > 100 µM (inactive)
GI50 (ACHN): > 100 µM (inactive)
GI50 (M14): > 100 µM (inactive)
GI50 (HCT-116): > 100 µM (inactive)
GI50 (SF-268): > 100 µM (inactive)
GI50 (UO-31): > 100 µM (inactive)
GI50 (RPMI-8226): > 100 µM (inactive)
GI50 (OVCAR-5): > 100 µM (inactive)
GI50 (SW-620): > 100 µM (inactive)
GI50 (MDA-MB-231): > 100 µM (inactive)
GI50 (NCI-H23): > 100 µM (inactive)
GI50 (CCRF-CEM): > 100 µM (inactive)
GI50 (MCF7): > 100 µM (inactive)
GI50 (MDA-N): > 100 µM (inactive)
GI50 (EKVX): > 100 µM (inactive)
GI50 (SNB-75): > 100 µM (inactive)
GI50 (MDA-MB-435): > 100 µM (inactive)
GI50 (T47D): > 100 µM (inactive)
GI50 (OVCAR-8): > 100 µM (inactive)
GI50 (K562): > 100 µM (inactive)
GI50 (U-251): > 100 µM (inactive)
GI50 (HOP-92): > 100 µM (inactive)
GI50 (MOLT-4): > 100 µM (inactive)
GI50 (DU-145): > 100 µM (inactive)
GI50 (A498): > 100 µM (inactive)
GI50 (HOP-62): > 100 µM (inactive)
GI50 (HL-60): > 100 µM (inactive)
GI50 (SR): > 100 µM (inactive)
GI50 (SK-MEL-2): > 100 µM (inactive)
GI50 (786-0): > 100 µM (inactive)
GI50 (IGROV-1): > 100 µM (inactive)
GI50 (UACC-62): > 100 µM (inactive)
GI50 (PC-3): > 100 µM (inactive)
GI50 (SF-295): > 100 µM (inactive)
GI50 (SN12C): > 100 µM (inactive)
GI50 (NCI-H522): > 100 µM (inactive)
GI50 (NCI-H460): > 100 µM (inactive)
GI50 (RXF 393): > 100 µM (inactive)
GI50 (OVCAR-4): > 100 µM (inactive)
GI50 (Hs-578T): > 100 µM (inactive)
GI50 (KM12): > 100 µM (inactive)
GI50 (COLO 205): > 100 µM (inactive)
